The values below come from patent publication US12391990B2, “Determination of magnesium body concentration” (Vanderbilt University, priority 2019, dated 2025).

Molecules are shown by their SMILES.

Test [1] concerns embryonic stem cells. The settings on record: vitamin C supplementation, cited from earlier work.
Test [2] concerns 5-hmC and 5-mC in tissues. The settings on record: vitamin C supplementation, all three tissues; cited from earlier work.
In test [3] the test system is 5-hmC levels in rectal tissues. Kind of test: 5-hmC affinity enrichment sequencing of pre- and post-treatment rectal tissues. It is filed as in vivo, human. As to conditions: rectal tissue. The protocol:
5-hmC alterations induced by Mg treatment. As mentioned, due to technological limitations, distinguishing 5-hmC from 5-mC has only recently been possible. Using the technology an evaluation was conducted of 5-hmC in normal rectal mucosa collected at baseline from 7 participants of the PPCCT. 5-hmC-specific affinity pull-down^142 samples were sequenced using the Illumina next-generation sequencing (50 bp single-end). The raw sequencing reads were mapped to the human genome reference (hg19) using Bowtie2^153. 5-hmC peaks (i.e. enriched 5-hmC regions) were then called using the MACS algorithm^154. There are two important findings. 1) There are approximately 13,000-15,000 high quality 5-hmC peaks across the genomes at p<1e-5 calculated by MACS.
Genome-wide 5-hmC was also measured in pre- (i.e. baseline) and post-treatment rectal tissues (i.e. after 3-month Mg supplementation). In this analysis, one individual was included in the treatment arm and the other in the placebo arm. Two-hundred ninety-six (296) and 1271 genes were found with ≥4-fold or ≥3-fold changes in 5-hmC levels from baseline, respectively, in the treatment arm compared to 39 and 176 in the placebo arm (Table 1). Thus, the treatment arm has a much larger number of affected genes than the placebo arm.
Furthermore, the majority of the changes found in 5-hmC caused by Mg treatment are up-modifications, very consistent with findings from in vitro and in vivo studies of vitamin C treatment^86;87.

The nature of test [4]: Magnesium tolerance test (MTT), percent Mg retention from 24-hour urine. It is filed as in vivo, human. The settings on record: after 12-week Mg supplementation, ongoing trial. The source says: In a magnesium tolerance test, a health care professional, such as a doctor, gives a participant a shot of a known amount of magnesium and then later uses the participant's urine to determine how much magnesium the participant's body retained, and how much the body eliminated.
In an exemplary study as described herein, participants who completed the study received a schedule of planned magnesium tolerance tests on two consecutive days. A 24-hour urine sample was collected for determining the basal urinary magnesium excretion prior to the intravenous infusion of magnesium sulfate. Another 24-hour urine sample was obtained starting with the IV infusion.
• 1. […] Percentage magnesium retained is calculated by the formula below (Mg: magnesium) […]
A Mg tolerance test, the most accurate approach to evaluate Mg nutriture, is conducted at the end of trial. […] For the Mg tolerance test, the participant's percent retention is calculated by the following formula: [1−(post infusion Mg excretion-pre infusion Mg excretion)/total Mg infused]×100. […]
MTT was conducted on 78 subjects in PPCCT. […] Urine magnesium level was measured using 7D70 Magnesium Reagent Kit from Abbot Laboratories (Abbott Park, TL). […] The absorbance of the arsenazo-magnesium complex is measured at 572 nm and is proportional to the concentration of magnesium present in the sample.

For test [5] the following is noted: 49 days of Mg repletion after 3-month Mg depletion, previous human study, from 0.81 to 0.86, p=0.06; cited from earlier work.
Setting [6] is: treatment arm, one individual, after 3-month Mg supplementation.

For the compound `O=C1O[C@H]([C@@H](O)CO)C(O)=C1O` [vitamin C], the “Number of genes with over 2-fold changes in expression” value in test [1] (primarily up-modifications) is on record as “approximately 200”. Further, in test [1], the “Change in 5-hmC” value is on record as “genome-wide increase in 5-hmC”. Moreover, in test [2], the “5-hmC concentrations in tissues” value is on record as “significantly elevated”.

Turning to `NCC(=O)[O-].NCC(=O)[O-].[Mg+2]` [Mg], the “Direction of the majority of changes in 5-hmC” value in test [3] (Mg treatment) is “up-modifications”. Also, in test [3] (setting [6]), the “Number of genes with ≥3-fold change in 5-hmC peaks from baseline” value turned out to be 1271 and the “Number of genes with ≥4-fold change in 5-hmC peaks from baseline” value was 296. For the same compound, the “Individuals who still had Mg deficiency (retention ≥50% in Mg tolerance test)” value in test [4] was 42%. Further, in test [5], the “Increase in serum Mg” value was 6%.
